Test results reported in patent publication US11780845B2 (Relay Therapeutics, Inc., priority 2019, dated 2023).

Tests used:
SNU-16 = test: Cell SNU-16 assay; type: cell-based
FGFR2 = FGFR2 (Homo sapiens (Human), UniProt P21802); test: Biochemical FGFR2 Caliper assay
[1] = Homo sapiens, SNU-16, SNU-16 cells

FGFR2, sequence (P21802 22-821): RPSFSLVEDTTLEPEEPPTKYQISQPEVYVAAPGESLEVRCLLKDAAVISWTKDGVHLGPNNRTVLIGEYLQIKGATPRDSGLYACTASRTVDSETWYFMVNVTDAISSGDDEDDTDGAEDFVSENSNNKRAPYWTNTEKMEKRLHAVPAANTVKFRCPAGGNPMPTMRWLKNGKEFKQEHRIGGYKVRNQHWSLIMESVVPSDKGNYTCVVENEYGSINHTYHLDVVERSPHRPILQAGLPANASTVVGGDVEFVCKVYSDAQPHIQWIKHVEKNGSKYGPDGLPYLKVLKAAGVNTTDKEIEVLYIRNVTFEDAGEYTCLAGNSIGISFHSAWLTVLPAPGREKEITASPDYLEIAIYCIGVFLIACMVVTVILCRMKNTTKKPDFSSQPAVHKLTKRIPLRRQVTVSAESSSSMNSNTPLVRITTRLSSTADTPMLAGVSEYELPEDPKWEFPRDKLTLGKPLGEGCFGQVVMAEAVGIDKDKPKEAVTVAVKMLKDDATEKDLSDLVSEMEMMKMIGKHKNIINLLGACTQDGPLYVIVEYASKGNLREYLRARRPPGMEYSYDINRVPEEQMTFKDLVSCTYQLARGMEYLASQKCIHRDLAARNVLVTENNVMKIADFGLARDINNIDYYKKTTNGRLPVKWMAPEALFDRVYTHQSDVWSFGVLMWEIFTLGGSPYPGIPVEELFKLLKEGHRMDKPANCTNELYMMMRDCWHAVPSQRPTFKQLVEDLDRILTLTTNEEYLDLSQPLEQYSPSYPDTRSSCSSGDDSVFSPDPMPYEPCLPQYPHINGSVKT

Structure (SMILES): C=C(C)C(=O)Nc1ccc(-c2c(C3=CC[C@H](S(=O)(=O)N4CCCC4)CC3)c3c(N)ncnc3n2C)cc1 [Example 995]
- IC50 (SNU-16; [1]): 250 to 1000 nM
- IC50 (FGFR2): 1000 to 100000 nM

Structure (SMILES): CC#Cc1cnc(-c2c(-c3ccc(Oc4nccc(C)n4)c(F)c3)c3c(N)ncnc3n2C)c(C)n1 [Example 1312]
- IC50 (SNU-16; [1]): 100 to 250 nM
- IC50 (FGFR2): 250 to 1000 nM

Structure (SMILES): C#Cc1nc2cc(-c3c(-c4ccc(Oc5nccc(C)n5)c(F)c4)c4c(N)ncnc4n3C)c(F)cc2n1C [Example 1388]
- IC50 (SNU-16; [1]): ≤ 100 nM
- IC50 (FGFR2): < 100 nM

Structure (SMILES): C#Cc1cnc2c(cc(-c3c(-c4ccc(Oc5nccc(C)n5)c(F)c4)c4c(N)ncnc4n3C)n2C)n1 [Example 1413]
- IC50 (SNU-16; [1]): ≤ 100 nM
- IC50 (FGFR2): < 100 nM

Structure (SMILES): CC#Cc1ncc(-c2c(-c3ccc(Oc4nccc(C)n4)cc3)c3c(N)ncnc3n2C)c(C)n1 [Example 1162]
- IC50 (SNU-16; [1]): ≤ 100 nM
- IC50 (FGFR2): < 100 nM

Structure (SMILES): C#Cc1cc(OC)c(-c2c(C3=CC[C@H](C(=O)N4CCC[C@H]4C#N)CC3)c3c(C)ncnc3n2C)cn1 [Example 1468]
- IC50 (SNU-16; [1]): ≤ 100 nM
- IC50 (FGFR2): < 100 nM

Structure (SMILES): C=C(C)C(=O)Nc1ccc(-c2c(-c3ccc(C(=O)N[C@H]4C[C@@H](F)C4)c(OC)c3)c3c(N)ncnc3n2C)cc1 [Example 964]
- IC50 (SNU-16; [1]): ≤ 100 nM
- IC50 (FGFR2): < 100 nM

Structure (SMILES): C=C(C)C(=O)Nc1ccc(-c2c(-c3ccc4c(C(=O)NC5CC5)n[nH]c4c3)c3c(N)ncnc3n2C)cc1 [Example 1323]
- IC50 (SNU-16; [1]): 1000 to 100000 nM
- IC50 (FGFR2): 1000 to 100000 nM

Structure (SMILES): C=C(C)C(=O)Nc1ccc(-c2c(-c3ccc4[nH]nc(C)c4c3)c3c(N)ncnc3n2C)cc1 [Example 1290]
- IC50 (SNU-16; [1]): 1000 to 100000 nM
- IC50 (FGFR2): 1000 to 100000 nM

Structure (SMILES): C=C(C)C(=O)Nc1ccc(-c2c(C3=CC[C@H](C(=O)NCC4(F)COC4)CC3)c3c(N)ncnc3n2C)cc1 [Example 1023]
- IC50 (SNU-16; [1]): 1000 to 100000 nM
- IC50 (FGFR2): 1000 to 100000 nM

Structure (SMILES): CC1=CCN(c2ccc(-c3c(-c4ccc(Oc5nccc(C)n5)cc4)c4c(N)ncnc4n3C)cc2)C1=O [Example 1061]
- IC50 (SNU-16; SNU-16 cells): ≤ 100 nM
- IC50 (FGFR2): < 100 nM

Structure (SMILES): C=CC(=O)Nc1ccc(-c2c(C3=CC[C@H](C(=O)N4CCCC4)CC3)c3c(C)ncnc3n2C)cc1 (single isomer, unassigned) [Example 1107]
- IC50 (SNU-16; [1]): ≤ 100 nM
- IC50 (FGFR2): < 100 nM

Structure (SMILES): C#Cc1cnc2cc(-c3c(-c4ccc(Oc5nccc(C)n5)c(F)c4)c4c(N)ncnc4n3C)ccc2n1 [Example 1363]
- IC50 (SNU-16; [1]): ≤ 100 nM
- IC50 (FGFR2): < 100 nM

Structure (SMILES): C#Cc1ccc2cc(-c3c(-c4ccc(Oc5nccc(C)n5)c(F)c4)c4c(N)ncnc4n3C)cnc2n1 [Example 1429]
- IC50 (SNU-16; [1]): ≤ 100 nM
- IC50 (FGFR2): < 100 nM

Structure (SMILES): C#Cc1cc(C)c(-c2c(-c3ccc(Oc4nccc(C)n4)c(F)c3)c3c(CO)ncnc3n2C)cn1 [Example 1479]
- IC50 (SNU-16; [1]): ≤ 100 nM
- IC50 (FGFR2): 250 to 1000 nM

Structure (SMILES): C=C(C)C(=O)Nc1ccc(-c2cn3ncnc(N)c3c2-c2ccc(C(=O)N3CCCC3)cc2)cc1 [Example 825]
- IC50 (SNU-16; [1]): ≤ 100 nM
- IC50 (FGFR2): 100 to 250 nM

Structure (SMILES): C=C(C)C(=O)Nc1ccc(-c2c(-c3ccc4cn[nH]c4c3)c3c(N)ncnc3n2C)cc1 [Example 1301]
- IC50 (SNU-16; [1]): 1000 to 100000 nM
- IC50 (FGFR2): 1000 to 100000 nM

Structure (SMILES): C#Cc1cc(C)c(-c2c(C3=CC[C@@H](C(=O)N4CCCC45COC5)CC3)c3c(N)ncnc3n2C)cn1 (single isomer, unassigned) [Example 1239]
- IC50 (SNU-16; [1]): ≤ 100 nM
- IC50 (FGFR2): < 100 nM

Structure (SMILES): C#Cc1cc(C)c(-c2c(C3=CC[C@H](C(=O)N4CCCC4=O)CC3)c3c(N)ncnc3n2C)cn1 (single isomer, unassigned) [Example 1240]
- IC50 (SNU-16; [1]): 100 to 250 nM
- IC50 (FGFR2): 100 to 250 nM

Structure (SMILES): C#Cc1cc(C)c(-c2c(C3=CC[C@H](C(=O)N4CCC[C@H]4C#N)CC3)c3c(N)ncnc3n2C)c(C)n1 (atropisomer, axis not shown) [Example 1469]
- IC50 (SNU-16; [1]): ≤ 100 nM
- IC50 (FGFR2): < 100 nM

Structure (SMILES): C=C(C)C(=O)Nc1ccc(-c2cn3ncnc(N)c3c2-c2ccc(C(=O)NC3CCC3)cc2)cc1 [Example 830]
- IC50 (SNU-16; [1]): ≤ 100 nM
- IC50 (FGFR2): < 100 nM

Structure (SMILES): C=CC(=O)N1CCC(n2cc(-c3c(-c4ccc(Oc5ccn(C)n5)cc4)c4c(N)ncnc4n3C)cn2)CC1 [Example 855]
- IC50 (SNU-16; [1]): 1000 to 100000 nM
- IC50 (FGFR2): 250 to 1000 nM

Structure (SMILES): C=C1C(=O)N(c2ccc(-c3c(-c4ccc(Oc5nccc(C)n5)cc4)c4c(N)ncnc4n3C)cc2)C[C@H]1C [Example 1135]
- IC50 (SNU-16; [1]): 100 to 250 nM
- IC50 (FGFR2): 250 to 1000 nM

Structure (SMILES): C#Cc1cc(C)c(-c2c(C3=CC[C@@H](C(=O)N4CCC[C@H]4C#N)CC3)c3c(C)ncnc3n2C)c(C)n1 (atropisomer, axis not shown) [Example 1466]
- IC50 (SNU-16; SNU-16 cells): 100 to 250 nM
- IC50 (FGFR2): 100 to 250 nM

Structure (SMILES): C=C(C)C(=O)Nc1ccc(-c2c(C3=CC[C@@H](C(=O)N4CCC[C@H]4C4CC4)CC3)c3c(N)ncnc3n2C)cc1 [Example 1056]
- IC50 (SNU-16; [1]): ≤ 100 nM
- IC50 (FGFR2): 250 to 1000 nM

Structure (SMILES): C=C(C)C(=O)Nc1ccc(-c2c(C3=CC[C@](C)(C(=O)N4CCCC4)CC3)c3c(N)ncnc3n2C)cc1 [Example 1026]
- IC50 (SNU-16; SNU-16 cells): 1000 to 100000 nM
- IC50 (FGFR2): 1000 to 100000 nM

Structure (SMILES): C=CC(=O)N[C@H]1CC=C(c2c(-c3ccc(Oc4nccc(C)n4)c(F)c3)c3c(N)ncnc3n2C)CC1 [Example 1377]
- IC50 (SNU-16; [1]): 250 to 1000 nM
- IC50 (FGFR2): 250 to 1000 nM

Structure (SMILES): C#Cc1ncc(-c2c(-c3ccc(C(=O)NCC(C)C)cc3)c3c(N)ncnc3n2C)c(C)c1F [Example 1306]
- IC50 (SNU-16; [1]): ≤ 100 nM
- IC50 (FGFR2): < 100 nM

Structure (SMILES): C#Cc1ncc(-c2c(-c3ccc(Oc4nccc(C)n4)c(F)c3)c3c(C)ncnc3n2C)c(C)c1F [Example 1255]
- IC50 (SNU-16; [1]): ≤ 100 nM
- IC50 (FGFR2): < 100 nM

Structure (SMILES): C=CC(=O)N1CC[C@H](c2c(C3=CC[C@H](C(=O)N4CCCC4)CC3)c3c(N)ncnc3n2C)C1 (single isomer, unassigned) [Example 873]
- IC50 (SNU-16; [1]): 250 to 1000 nM
- IC50 (FGFR2): 1000 to 100000 nM

Structure (SMILES): C#Cc1nc2cc(-c3c(-c4ccc(Oc5nccc(C)n5)c(F)c4)c4c(N)ncnc4n3C)c(OC)cc2n1C [Example 1426]
- IC50 (SNU-16; [1]): ≤ 100 nM
- IC50 (FGFR2): < 100 nM

Structure (SMILES): C#Cc1ncc(-c2c(-c3ccc(Oc4nccc(C)n4)cc3)c3c(N)ncnc3n2C)c(C)n1 [Example 1062]
- IC50 (SNU-16; [1]): 1000 to 100000 nM
- IC50 (FGFR2): 1000 to 100000 nM

Structure (SMILES): C#Cc1ncc(-c2c(-c3ccc(Oc4nccc(C)n4)c(F)c3)c3c(C)ncnc3n2C)cc1OC [Example 1381]
- IC50 (SNU-16; [1]): ≤ 100 nM
- IC50 (FGFR2): 100 to 250 nM

Structure (SMILES): C#Cc1nc2cc(-c3c(-c4ccc(Oc5nccc(C)n5)c(F)c4)c4c(N)ncnc4n3C)ccc2n1C [Example 1359]
- IC50 (SNU-16; [1]): ≤ 100 nM
- IC50 (FGFR2): < 100 nM

Structure (SMILES): C=CS(=O)(=O)N1CC[C@H](c2c(-c3ccc(C(=O)N4CCCC4)cc3)c3c(N)ncnc3n2C)C1 (single isomer, unassigned) [Example 863]
- IC50 (SNU-16; [1]): 100 to 250 nM
- IC50 (FGFR2): 250 to 1000 nM

Structure (SMILES): C=CC(=O)Nc1ccc(-c2c(C3=CC[C@H](C(=O)N4CCCC4)CC3)c3c(N)ncnc3n2C)cc1 (single isomer, unassigned) [Example 963]
- IC50 (SNU-16; [1]): ≤ 100 nM
- IC50 (FGFR2): < 100 nM

Structure (SMILES): C=C(C)C(=O)Nc1ccc(-c2c(-c3ccc(Oc4cccc(C)n4)cc3)c3c(N)ncnn3c2CO)cc1 [Example 808]
- IC50 (SNU-16; [1]): 100 to 250 nM
- IC50 (FGFR2): 100 to 250 nM

Structure (SMILES): C=C(C)C(=O)Nc1ccc(-c2c(C3=CC[C@H](C(=O)N4CCCC[C@H]4C)CC3)c3c(N)ncnc3n2C)cc1 [Example 994]
- IC50 (SNU-16; [1]): 100 to 250 nM
- IC50 (FGFR2): 1000 to 100000 nM

Structure (SMILES): Cn1c(-c2ccc(NC(=O)[C@@H]3CN3)cc2)c(-c2ccc(C(=O)N3CCCC3)cc2)c2c(N)ncnc21 (single isomer, unassigned) [Example 899]
- IC50 (SNU-16; [1]): 1000 to 100000 nM
- IC50 (FGFR2): 1000 to 100000 nM

Structure (SMILES): C#Cc1ncc(-c2c(-c3ccc(Oc4nccc(C)n4)c(F)c3)c3c(N)ncnc3n2C)c2ccccc12 [Example 1233]
- IC50 (SNU-16; [1]): ≤ 100 nM
- IC50 (FGFR2): < 100 nM

Structure (SMILES): C=CC(=O)Nc1ccc(-c2c(-c3ccc(C(=O)NC4CCC4)c(OC)c3)c3c(N)ncnc3n2C)cc1 [Example 1074]
- IC50 (SNU-16; [1]): ≤ 100 nM
- IC50 (FGFR2): < 100 nM

Structure (SMILES): Cc1ccnc(Oc2ccc(-c3c(-c4ccc(-c5cnc(C#N)o5)cc4)n(C)c4ncnc(N)c34)cc2)n1 [Example 915]
- IC50 (SNU-16; [1]): 250 to 1000 nM
- IC50 (FGFR2): 1000 to 100000 nM

Structure (SMILES): C#Cc1ccc2c(n1)CCCn1c-2c(-c2ccc(Oc3nccc(C)n3)c(F)c2)c2c(N)ncnc21 [Example 1443]
- IC50 (SNU-16; [1]): ≤ 100 nM
- IC50 (FGFR2): 100 to 250 nM

Structure (SMILES): C#Cc1cc(C)c(-c2c(C3=CC[C@@H](C(=O)N4CCCC4=O)CC3)c3c(N)ncnc3n2C)cn1 (single isomer, unassigned) [Example 1241]
- IC50 (SNU-16; [1]): ≤ 100 nM
- IC50 (FGFR2): < 100 nM

Structure (SMILES): C=C(C)C(=O)Nc1ccc(-c2c(C3=CC[C@H](C(=O)N4CCCC45COC5)CC3)c3c(N)ncnc3n2C)cc1 (single isomer, unassigned) [Example 913]
- IC50 (SNU-16; [1]): ≤ 100 nM
- IC50 (FGFR2): < 100 nM

Structure (SMILES): C#Cc1ccc(-c2c(-c3ccc(Oc4nccc(C)n4)c(F)c3)c3c(N)ncnc3n2C)c(CC)n1 [Example 1243]
- IC50 (SNU-16; [1]): ≤ 100 nM
- IC50 (FGFR2): < 100 nM

Structure (SMILES): C=CC(=O)Nc1ccc(-c2c(C3=CC[C@@H](C(=O)N4CCCC4)CC3)c3c(N)ncnc3n2C)cc1 (single isomer, unassigned) [Example 962]
- IC50 (SNU-16; [1]): ≤ 100 nM
- IC50 (FGFR2): < 100 nM

Structure (SMILES): C=C(C)C(=O)Nc1ccc(-c2nn3ccnc(N)c3c2C2=CC[C@H](C(=O)N3CCCC3)CC2)cc1 (single isomer, unassigned) [Example 869]
- IC50 (SNU-16; [1]): 250 to 1000 nM
- IC50 (FGFR2): 1000 to 100000 nM
